Literature values as cited in publication PMC4956526 (Bioconjugate chemistry, 2016).

Details: ref 40 (Lau et al.)

subcutaneous bioavailability [%]	Substance
66	liraglutide
94	semaglutide
